Measurements from ChEMBL document CHEMBL1201862, “PubChem BioAssay data set” (2004).
Activity calls are given as the source filed them. Cut-off read from the data, not from the text of the source, for most assays here: actives have a measured IC50 and inactives only a lower limit.

Key:
[1] = molecular target: T1, Nucleotide-binding oligomerization domain-containing protein 1 (Homo sapiens, UniProt Q9Y239); test: SAR analysis of compounds that inhibit NOD1 - Set 3. [Related pubchem assays (depositor defined):AID1566, AID1575, AID1578, AID1849, AID1852, AID2333, AID2335, AID2466]; assay type: functional
T1 sequence (Q9Y239 whole entry): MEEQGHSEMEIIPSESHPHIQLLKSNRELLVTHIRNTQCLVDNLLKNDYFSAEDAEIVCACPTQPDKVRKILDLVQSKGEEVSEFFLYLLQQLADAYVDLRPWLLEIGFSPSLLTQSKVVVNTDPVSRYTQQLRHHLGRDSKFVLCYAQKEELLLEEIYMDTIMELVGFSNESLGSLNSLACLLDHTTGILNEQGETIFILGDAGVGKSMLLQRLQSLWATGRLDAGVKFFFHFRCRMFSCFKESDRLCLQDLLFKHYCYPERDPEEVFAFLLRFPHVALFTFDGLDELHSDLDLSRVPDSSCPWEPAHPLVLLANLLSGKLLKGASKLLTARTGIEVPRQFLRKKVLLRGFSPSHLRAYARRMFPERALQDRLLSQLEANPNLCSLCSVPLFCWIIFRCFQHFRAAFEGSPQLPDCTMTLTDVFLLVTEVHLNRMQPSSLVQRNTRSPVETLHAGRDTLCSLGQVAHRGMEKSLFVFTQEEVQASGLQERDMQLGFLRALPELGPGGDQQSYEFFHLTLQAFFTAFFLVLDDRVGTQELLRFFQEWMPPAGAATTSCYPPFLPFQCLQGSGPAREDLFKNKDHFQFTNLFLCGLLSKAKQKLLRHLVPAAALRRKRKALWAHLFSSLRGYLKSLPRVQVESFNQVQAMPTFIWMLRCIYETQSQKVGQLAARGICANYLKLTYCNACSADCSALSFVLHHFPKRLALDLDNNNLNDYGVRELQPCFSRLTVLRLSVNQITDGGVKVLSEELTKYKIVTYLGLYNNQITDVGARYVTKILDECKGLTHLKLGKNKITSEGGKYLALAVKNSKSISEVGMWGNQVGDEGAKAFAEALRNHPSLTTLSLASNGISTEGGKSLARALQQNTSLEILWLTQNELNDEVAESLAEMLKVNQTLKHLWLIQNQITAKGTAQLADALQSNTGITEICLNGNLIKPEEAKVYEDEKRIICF

[2] = molecular target: T2, Tumor necrosis factor (Homo sapiens, UniProt P01375); test: analog potency on TNFa NF-kB signaling – cell-based, set 3, SAR follow-up (AID 2801); assay type: functional
T2 sequence (P01375 whole entry): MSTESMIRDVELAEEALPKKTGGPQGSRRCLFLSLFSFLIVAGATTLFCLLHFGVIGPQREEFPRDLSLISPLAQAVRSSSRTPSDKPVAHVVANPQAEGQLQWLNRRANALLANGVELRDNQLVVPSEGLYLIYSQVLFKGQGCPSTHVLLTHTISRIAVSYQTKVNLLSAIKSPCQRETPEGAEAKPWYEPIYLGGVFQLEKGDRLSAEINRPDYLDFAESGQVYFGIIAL

[3] = system: HEK293; test: SAR analysis of compounds that are cytotoxic to HEK293 - Set 3. [Related pubchem assays (depositor defined):AID1575, AID1578, AID1848, AID1849, AID2001, AID2333, AID2334, AID2335, AID2337, AID2469]; assay type: functional, cell-based; conditions: Homo sapiens
[4] = molecular target: Nucleotide-binding oligomerization domain-containing protein 2 (Homo sapiens, UniProt Q9HC29); test: inhibition of MDP-driven NOD2 NF-kB reporter – cell-based, set 3, SAR follow-up (AID 2799); assay type: functional
Sequence of Nucleotide-binding oligomerization domain-containing protein 2 (Q9HC29 whole entry, the tested form may be a part): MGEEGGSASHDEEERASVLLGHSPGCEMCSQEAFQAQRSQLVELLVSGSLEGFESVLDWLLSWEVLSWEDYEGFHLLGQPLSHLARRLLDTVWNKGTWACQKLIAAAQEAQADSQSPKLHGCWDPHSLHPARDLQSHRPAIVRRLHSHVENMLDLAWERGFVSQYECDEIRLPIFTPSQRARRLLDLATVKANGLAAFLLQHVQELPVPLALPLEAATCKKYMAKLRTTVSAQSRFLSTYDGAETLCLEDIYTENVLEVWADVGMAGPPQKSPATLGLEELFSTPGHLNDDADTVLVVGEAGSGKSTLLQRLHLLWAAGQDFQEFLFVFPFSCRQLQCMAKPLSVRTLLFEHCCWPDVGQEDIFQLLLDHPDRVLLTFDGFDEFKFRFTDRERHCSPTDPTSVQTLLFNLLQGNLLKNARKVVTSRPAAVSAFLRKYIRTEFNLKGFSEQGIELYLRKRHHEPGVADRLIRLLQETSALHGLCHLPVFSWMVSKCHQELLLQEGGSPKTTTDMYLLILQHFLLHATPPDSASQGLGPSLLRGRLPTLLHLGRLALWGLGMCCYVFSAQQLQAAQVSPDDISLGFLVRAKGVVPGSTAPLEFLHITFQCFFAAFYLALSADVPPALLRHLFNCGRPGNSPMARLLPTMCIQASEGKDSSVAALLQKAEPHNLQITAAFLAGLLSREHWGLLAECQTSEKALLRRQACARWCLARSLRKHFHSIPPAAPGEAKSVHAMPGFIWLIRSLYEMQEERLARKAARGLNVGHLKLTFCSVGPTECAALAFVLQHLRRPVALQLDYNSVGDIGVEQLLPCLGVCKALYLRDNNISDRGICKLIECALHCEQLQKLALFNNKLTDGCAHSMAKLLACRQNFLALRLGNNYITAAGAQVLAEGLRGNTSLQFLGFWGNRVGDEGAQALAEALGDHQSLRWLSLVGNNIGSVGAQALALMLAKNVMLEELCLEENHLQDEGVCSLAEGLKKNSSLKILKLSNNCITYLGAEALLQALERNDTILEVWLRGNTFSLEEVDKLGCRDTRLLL

[5] = molecular target: T2, Tumor necrosis factor; test: analog potency on TNFa NF-kB signaling – cell-based, revised, SAR follow-up (AID 2337); assay type: functional
[6] = molecular target: T1, Nucleotide-binding oligomerization domain-containing protein 1; test: blockers of NOD1 pathway activity – revised, SAR follow-up (AID 2333); assay type: functional
[7] = system: HEK293; test: cells; conditions: Homo sapiens
[8] = molecular target: T3, Mannose-6-phosphate isomerase (Homo sapiens, UniProt P34949); test: MPI enzyme activity inhibition – biochemical, fluorescence intensity, coupled assay, primary screen (AID 1209)
T3 sequence (P34949 whole entry): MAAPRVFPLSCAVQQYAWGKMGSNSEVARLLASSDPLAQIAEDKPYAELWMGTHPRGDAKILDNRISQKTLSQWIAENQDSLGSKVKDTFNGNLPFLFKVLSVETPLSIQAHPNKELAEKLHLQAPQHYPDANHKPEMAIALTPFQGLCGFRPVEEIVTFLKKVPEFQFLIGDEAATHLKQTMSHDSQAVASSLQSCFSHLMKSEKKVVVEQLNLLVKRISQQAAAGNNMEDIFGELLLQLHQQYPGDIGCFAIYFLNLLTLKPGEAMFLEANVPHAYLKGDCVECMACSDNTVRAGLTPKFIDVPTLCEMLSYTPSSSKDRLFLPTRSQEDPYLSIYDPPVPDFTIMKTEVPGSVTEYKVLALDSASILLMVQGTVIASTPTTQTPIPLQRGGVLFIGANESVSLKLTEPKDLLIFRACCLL

[9] = molecular target: T3, Mannose-6-phosphate isomerase; test: phosphomannose isomerase inhibition – biochemical, fluorescence intensity, confirmation (AID 1535)
[10] = molecular target: Phosphomannomutase 2 (Homo sapiens, UniProt O15305); test: Counter screen SAR assay for PMM2 inhibitors via a fluorescence intensity assay. [Related pubchem assays (depositor defined):AID1545, AID1574]
Sequence of Phosphomannomutase 2 (O15305 whole entry): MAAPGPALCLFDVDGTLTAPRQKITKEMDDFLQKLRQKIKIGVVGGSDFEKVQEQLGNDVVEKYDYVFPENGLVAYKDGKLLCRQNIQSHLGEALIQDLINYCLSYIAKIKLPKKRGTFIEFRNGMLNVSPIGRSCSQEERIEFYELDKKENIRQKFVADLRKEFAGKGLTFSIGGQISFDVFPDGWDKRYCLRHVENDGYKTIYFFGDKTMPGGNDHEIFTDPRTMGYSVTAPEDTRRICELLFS

[11] = molecular target: Lysine-specific demethylase 4A (Homo sapiens, UniProt O75164); test: inhibition of JMJD2A H3K9me3 demethylation – biochemical, DELFIA europium, cherry-picked samples, selectivity assay for GASC-1 inhibitor project, dose response (AID 488840)
Sequence of Lysine-specific demethylase 4A (O75164 whole entry): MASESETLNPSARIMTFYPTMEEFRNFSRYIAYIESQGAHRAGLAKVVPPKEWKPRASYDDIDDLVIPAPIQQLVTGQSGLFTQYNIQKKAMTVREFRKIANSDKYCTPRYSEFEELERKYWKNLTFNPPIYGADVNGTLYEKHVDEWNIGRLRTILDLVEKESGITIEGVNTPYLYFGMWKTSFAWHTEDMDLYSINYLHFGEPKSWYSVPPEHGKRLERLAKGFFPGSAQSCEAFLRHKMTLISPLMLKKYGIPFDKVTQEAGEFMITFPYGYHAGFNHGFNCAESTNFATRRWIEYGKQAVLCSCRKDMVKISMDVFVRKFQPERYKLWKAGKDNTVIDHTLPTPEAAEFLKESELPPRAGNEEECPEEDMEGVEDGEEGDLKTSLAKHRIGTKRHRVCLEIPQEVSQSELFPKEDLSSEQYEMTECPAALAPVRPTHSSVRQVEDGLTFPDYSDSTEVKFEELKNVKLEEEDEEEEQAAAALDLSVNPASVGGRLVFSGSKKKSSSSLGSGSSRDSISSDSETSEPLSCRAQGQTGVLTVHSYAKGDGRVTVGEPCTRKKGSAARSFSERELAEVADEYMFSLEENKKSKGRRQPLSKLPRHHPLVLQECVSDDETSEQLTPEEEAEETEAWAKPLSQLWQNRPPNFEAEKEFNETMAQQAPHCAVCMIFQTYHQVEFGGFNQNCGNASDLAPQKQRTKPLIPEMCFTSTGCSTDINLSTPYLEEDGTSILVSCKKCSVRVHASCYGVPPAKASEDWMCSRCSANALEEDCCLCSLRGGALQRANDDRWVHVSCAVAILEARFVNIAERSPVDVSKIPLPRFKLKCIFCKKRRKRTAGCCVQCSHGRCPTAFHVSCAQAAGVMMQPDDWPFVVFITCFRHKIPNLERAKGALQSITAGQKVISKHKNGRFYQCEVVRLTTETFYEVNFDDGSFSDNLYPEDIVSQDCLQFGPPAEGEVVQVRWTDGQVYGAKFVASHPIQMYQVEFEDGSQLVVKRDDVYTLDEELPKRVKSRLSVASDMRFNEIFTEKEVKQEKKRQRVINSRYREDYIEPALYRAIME

With Nc1cc(-c2ccccc2)nn1S(=O)(=O)c1ccc(F)c(Cl)c1 the IC50 [1] was > 20 µM (inactive), the IC50 [2] was > 20 µM (inactive) and the IC50 [3] was > 20 µM (inactive). For the same molecule, the IC50 [4] was > 20 µM (inactive).

In the case of COc1ccc(NC(=O)c2ccc(CN3CCc4ccccc4C3)cc2)cc1, the IC50 [5] is reported as 0.65 µM (active), the IC50 [6] is reported as 0.513 µM (active) and the IC50 [7] is reported as > 20 µM (inactive).

In the case of N#CC1=C2SCN(Cc3ccccc3)CN2C(=O)CC1c1ccc2c(c1)OCO2 (stereo unspecified), the IC50 [8] is reported as 16 µM (active), the IC50 [9] is reported as 36.9 µM (active) and the IC50 [10] is reported as > 100 µM (inactive).

For O=c1n(Cc2ccccc2)c2cc(Cl)cnc2n1Cc1ccccc1, the AC50 [11] was 9.18 µM (active).
